Results taken from US10238667B2, “Vitamin D receptor/SMAD genomic circuit gates fibrotic response” (Salk Institute for Biological Studies, priority 2013, dated 2019).

Tested on: primary rat HSCs
Assay: Microarray expression profiling of TGFβ1 and TGFβ1+1,25(OH)2D3-treated HSCs
Type: cell-based
From the text: VDR Signaling Suppresses TGFβ-induced Pro-Fibrotic Genes. […] Euclidean clustering of both rows and columns using log2 transformed microarray expression data, n=2 per treatment group. […] Data represents the mean±SEM of at least three independent experiments performed in triplicate. Asterisks denote statistically significant differences (Student's unpaired t-test, *p<0.05, **p<0.01). HSCs were isolated from 10-week old male C57BL/6J mice and Wistar rats by in situ pronase, collagenase perfusion and single-step Histogenz gradient as previously reported (Hendriks et al., 1985; Knook et al., 1982). Isolated HSCs were cultured in DMEM (Mediatech) containing 20% FBS (Hyclone) on 6-well plates for 40 hours prior to end-point assays. Total RNA from primary rat or mouse HSCs was isolated using the RNeasy mini kit (Qiagen) according to standard protocols. RNA integrity and quality was assessed using the Agilent Bioanalyzer and prepared for hybridization to Illumina rat or mouse gene expression arrays according to standard Illumina protocols. Feature extraction was performed using the Illumina GenomeStudio software. Normalization and identification of differentially expressed genes from biological duplicates was performed using […] at http://sasquatch.ucsd.edu/vampire/.

## C=C1/C(=C\C=C2/CCC[C@]3(C)C([C@H](C)CCCC(C)(C)O)CC[C@@H]23)C[C@@H](O)C[C@@H]1O (stereo partly drawn) [1,25(OH)2D3, 1α,25 dihydroxyvitamin D3]
1,25(OH)2D3 co-treatment with TGFβ1
  TGFβ1 induced genes: considerable repression
TGFβ1 1 ng/ml + 1,25(OH)2D3 100 nM, 24 h, Control 150.8, TGFβ 202.4
  Mmp13 VitD + TGF β Avg Signal: 180.0
TGFβ1 1 ng/ml + 1,25(OH)2D3 100 nM, 24 h, Control 162.6, TGFβ 225.3
  Col4a2 VitD + TGF β Avg Signal: 166.2
TGFβ1 1 ng/ml + 1,25(OH)2D3 100 nM, 24 h, Control 170.2, TGFβ 202.7
  Itga7 VitD + TGF β Avg Signal: 161.9
TGFβ1 1 ng/ml + 1,25(OH)2D3 100 nM, 24 h, Control 175.4, TGFβ 237.2
  Col16a1 VitD + TGF β Avg Signal: 173.3
TGFβ1 1 ng/ml + 1,25(OH)2D3 100 nM, 24 h, Control 185.8, TGFβ 229.6
  Col7a1 VitD + TGF β Avg Signal: 190.3
TGFβ1 1 ng/ml + 1,25(OH)2D3 100 nM, 24 h, Control 188.5, TGFβ 257.9
  Itga2 VitD + TGF β Avg Signal: 204.2
TGFβ1 1 ng/ml + 1,25(OH)2D3 100 nM, 24 h, Control 193.2, TGFβ 926.6
  LOC366205 VitD + TGFbeta AVG signal: 140.7
TGFβ1 1 ng/ml + 1,25(OH)2D3 100 nM, 24 h, Control 226.4, TGFβ 288.5
  Tgfb3 VitD + TGF β Avg Signal: 178.6
TGFβ1 1 ng/ml + 1,25(OH)2D3 100 nM, 24 h, Control 234.2, TGFβ 620
  LOC499272 VitD + TGFbeta AVG signal: 140.2
TGFβ1 1 ng/ml + 1,25(OH)2D3 100 nM, 24 h, Control 240.8, TGFβ 4341
  LOC497796 VitD + TGFbeta AVG signal: 859
TGFβ1 1 ng/ml + 1,25(OH)2D3 100 nM, 24 h, Control 257.9, TGFβ 616.4
  Col15a1 VitD + TGF β Avg Signal: 396.9
TGFβ1 1 ng/ml + 1,25(OH)2D3 100 nM, 24 h, Control 261.1, TGFβ 622.8
  Ly49si1 VitD + TGFbeta AVG signal: 134.7
TGFβ1 1 ng/ml + 1,25(OH)2D3 100 nM, 24 h, Control 277.1, TGFβ 365.1
  Tgfbr1 VitD + TGF β Avg Signal: 331.9
TGFβ1 1 ng/ml + 1,25(OH)2D3 100 nM, 24 h, Control 277.3, TGFβ 469.3
  Mmp7 VitD + TGF β Avg Signal: 164.9
TGFβ1 1 ng/ml + 1,25(OH)2D3 100 nM, 24 h, Control 281.2, TGFβ 594.6
  LOC499100 VitD + TGFbeta AVG signal: 154.4
TGFβ1 1 ng/ml + 1,25(OH)2D3 100 nM, 24 h, Control 288.8, TGFβ 687.8
  LOC305269 VitD + TGFbeta AVG signal: 170.6
TGFβ1 1 ng/ml + 1,25(OH)2D3 100 nM, 24 h, Control 289.0, TGFβ 347.6
  Tgfbr2 VitD + TGF β Avg Signal: 358.9
TGFβ1 1 ng/ml + 1,25(OH)2D3 100 nM, 24 h, Control 303.7, TGFβ 1141.2
  Stab1_predict VitD + TGFbeta AVG signal: 204.7
TGFβ1 1 ng/ml + 1,25(OH)2D3 100 nM, 24 h, Control 319.6, TGFβ 516.3
  Mmp19 VitD + TGF β Avg Signal: 308.7
TGFβ1 1 ng/ml + 1,25(OH)2D3 100 nM, 24 h, Control 337.9, TGFβ 553.9
  Cdh1 VitD + TGFbeta AVG signal: 126.8
TGFβ1 1 ng/ml + 1,25(OH)2D3 100 nM, 24 h, Control 426.1, TGFβ 842.9
  Dcir2 VitD + TGFbeta AVG signal: 184.9
TGFβ1 1 ng/ml + 1,25(OH)2D3 100 nM, 24 h, Control 429.3, TGFβ 801.8
  Cysltr1 VitD + TGFbeta AVG signal: 183.5
TGFβ1 1 ng/ml + 1,25(OH)2D3 100 nM, 24 h, Control 429.6, TGFβ 887.6
  LOC501570 VitD + TGFbeta AVG signal: 192.5
TGFβ1 1 ng/ml + 1,25(OH)2D3 100 nM, 24 h, Control 457.8, TGFβ 912.3
  Tmem26_pred VitD + TGFbeta AVG signal: 237.3
TGFβ1 1 ng/ml + 1,25(OH)2D3 100 nM, 24 h, Control 462.9, TGFβ 913.7
  Pirb VitD + TGFbeta AVG signal: 171.1
TGFβ1 1 ng/ml + 1,25(OH)2D3 100 nM, 24 h, Control 469.9, TGFβ 892.8
  LOC366608 VitD + TGFbeta AVG signal: 203.6
TGFβ1 1 ng/ml + 1,25(OH)2D3 100 nM, 24 h, Control 474.2, TGFβ 1429.1
  Col1a1 VitD + TGF β Avg Signal: 557.9
TGFβ1 1 ng/ml + 1,25(OH)2D3 100 nM, 24 h, Control 495.5, TGFβ 966.5
  Loxl2 VitD + TGF β Avg Signal: 597.0
TGFβ1 1 ng/ml + 1,25(OH)2D3 100 nM, 24 h, Control 500.7, TGFβ 913.0
  Timp2 VitD + TGF β Avg Signal: 751.7
TGFβ1 1 ng/ml + 1,25(OH)2D3 100 nM, 24 h, Control 513.9, TGFβ 965.1
  Col3a1 VitD + TGF β Avg Signal: 287.6
TGFβ1 1 ng/ml + 1,25(OH)2D3 100 nM, 24 h, Control 526.5, TGFβ 848.2
  Col6a3 VitD + TGF β Avg Signal: 442.6
TGFβ1 1 ng/ml + 1,25(OH)2D3 100 nM, 24 h, Control 537.2, TGFβ 1045.1
  Loxl1 VitD + TGF β Avg Signal: 560.1
TGFβ1 1 ng/ml + 1,25(OH)2D3 100 nM, 24 h, Control 538.9, TGFβ 1177
  Ly49si2 VitD + TGFbeta AVG signal: 256
TGFβ1 1 ng/ml + 1,25(OH)2D3 100 nM, 24 h, Control 557.1, TGFβ 1013.7
  LOC361699 VitD + TGFbeta AVG signal: 263.7
TGFβ1 1 ng/ml + 1,25(OH)2D3 100 nM, 24 h, Control 561.7, TGFβ 1042.3
  Mmp10 VitD + TGF β Avg Signal: 764.6
TGFβ1 1 ng/ml + 1,25(OH)2D3 100 nM, 24 h, Control 574.2, TGFβ 1285.9
  Col8a1 VitD + TGF β Avg Signal: 773.5
TGFβ1 1 ng/ml + 1,25(OH)2D3 100 nM, 24 h, Control 597, TGFβ 1047.9
  Ccl12_predicte VitD + TGFbeta AVG signal: 191.1
TGFβ1 1 ng/ml + 1,25(OH)2D3 100 nM, 24 h, Control 611.1, TGFβ 1418.9
  Col5a1 VitD + TGF β Avg Signal: 673.0
TGFβ1 1 ng/ml + 1,25(OH)2D3 100 nM, 24 h, Control 664, TGFβ 1503.8
  LOC304349 VitD + TGFbeta AVG signal: 211.1
TGFβ1 1 ng/ml + 1,25(OH)2D3 100 nM, 24 h, Control 814.7, TGFβ 1308.4
  Tgfb2 VitD + TGF β Avg Signal: 388.0
TGFβ1 1 ng/ml + 1,25(OH)2D3 100 nM, 24 h, Control 827.8, TGFβ 2611.8
  LOC498751 VitD + TGFbeta AVG signal: 516.6
TGFβ1 1 ng/ml + 1,25(OH)2D3 100 nM, 24 h, Control 831.7, TGFβ 1893.5
  Emr1 VitD + TGFbeta AVG signal: 319.1
TGFβ1 1 ng/ml + 1,25(OH)2D3 100 nM, 24 h, Control 858.7, TGFβ 1425.7
  LOC502904 VitD + TGFbeta AVG signal: 213.6
TGFβ1 1 ng/ml + 1,25(OH)2D3 100 nM, 24 h, Control 880.0, TGFβ 1227.3
  Itga5 VitD + TGF β Avg Signal: 1158.1
TGFβ1 1 ng/ml + 1,25(OH)2D3 100 nM, 24 h, Control 906.9, TGFβ 2511.6
  Cacnb3 VitD + TGFbeta AVG signal: 415.9
TGFβ1 1 ng/ml + 1,25(OH)2D3 100 nM, 24 h, Control 954.6, TGFβ 1628.6, listed as VitD
  Bmp2 VitD + TGFbeta AVG signal: 305
TGFβ1 1 ng/ml + 1,25(OH)2D3 100 nM, 24 h, Control 1039.2, TGFβ 4083.5
  Gas7 VitD + TGFbeta AVG signal: 832.8
TGFβ1 1 ng/ml + 1,25(OH)2D3 100 nM, 24 h, Control 1044.7, TGFβ 1762.9
  Slamf9_predic VitD + TGFbeta AVG signal: 417.9
TGFβ1 1 ng/ml + 1,25(OH)2D3 100 nM, 24 h, Control 1128.4, TGFβ 1464.4
  Itga4 VitD + TGF β Avg Signal: 380.6
TGFβ1 1 ng/ml + 1,25(OH)2D3 100 nM, 24 h, Control 1156.2, TGFβ 1908.8
  LOC498741 VitD + TGFbeta AVG signal: 314.1
TGFβ1 1 ng/ml + 1,25(OH)2D3 100 nM, 24 h, Control 1297, TGFβ 2520.2
  Hod VitD + TGFbeta AVG signal: 495.9
TGFβ1 1 ng/ml + 1,25(OH)2D3 100 nM, 24 h, Control 1399.7, TGFβ 2318.7
  LOC502907 VitD + TGFbeta AVG signal: 241.9
TGFβ1 1 ng/ml + 1,25(OH)2D3 100 nM, 24 h, Control 1582.3, TGFβ 2387
  Ptprc VitD + TGFbeta AVG signal: 569.1
TGFβ1 1 ng/ml + 1,25(OH)2D3 100 nM, 24 h, Control 1689.7, TGFβ 2297.0
  Itgam VitD + TGF β Avg Signal: 658.0
TGFβ1 1 ng/ml + 1,25(OH)2D3 100 nM, 24 h, Control 1708.1, TGFβ 2261.0
  Col4a1 VitD + TGF β Avg Signal: 1315.2
TGFβ1 1 ng/ml + 1,25(OH)2D3 100 nM, 24 h, Control 1813.1, TGFβ 4284.5
  Chst1_predict VitD + TGFbeta AVG signal: 337.6
TGFβ1 1 ng/ml + 1,25(OH)2D3 100 nM, 24 h, Control 1943.2, TGFβ 4575.5
  Dsipi VitD + TGFbeta AVG signal: 1152
TGFβ1 1 ng/ml + 1,25(OH)2D3 100 nM, 24 h, Control 2069.5, TGFβ 4680.9
  Ccr5 VitD + TGFbeta AVG signal: 362.3
TGFβ1 1 ng/ml + 1,25(OH)2D3 100 nM, 24 h, Control 2145.1, TGFβ 4760.5
  Itgav VitD + TGF β Avg Signal: 2417.2
TGFβ1 1 ng/ml + 1,25(OH)2D3 100 nM, 24 h, Control 2153.3, TGFβ 4197.3
  Mmp9 VitD + TGF β Avg Signal: 2676.4
TGFβ1 1 ng/ml + 1,25(OH)2D3 100 nM, 24 h, Control 2181.0, TGFβ 3452.2
  Col5a2 VitD + TGF β Avg Signal: 1696.8
TGFβ1 1 ng/ml + 1,25(OH)2D3 100 nM, 24 h, Control 2260.8, TGFβ 7481.1
  Lox VitD + TGF β Avg Signal: 4219.9
TGFβ1 1 ng/ml + 1,25(OH)2D3 100 nM, 24 h, Control 2562.8, TGFβ 3888.4
  LOC499356 VitD + TGFbeta AVG signal: 352.7
TGFβ1 1 ng/ml + 1,25(OH)2D3 100 nM, 24 h, Control 2632.5, TGFβ 7594.5
  Fchsd2_predic VitD + TGFbeta AVG signal: 1565
TGFβ1 1 ng/ml + 1,25(OH)2D3 100 nM, 24 h, Control 2922.5, TGFβ 5480.4
  Tgfb1 VitD + TGF β Avg Signal: 4391.0
TGFβ1 1 ng/ml + 1,25(OH)2D3 100 nM, 24 h, Control 3327, TGFβ 14356
  Ms4a4a_predi VitD + TGFbeta AVG signal: 810.7
TGFβ1 1 ng/ml + 1,25(OH)2D3 100 nM, 24 h, Control 3330.8, TGFβ 6754.6
  Pcsk1 VitD + TGFbeta AVG signal: 912.4
TGFβ1 1 ng/ml + 1,25(OH)2D3 100 nM, 24 h, Control 3823.9, TGFβ 7658.8
  Ms4a6a_predi VitD + TGFbeta AVG signal: 1696
